Source: ChEMBL document CHEMBL4000182, “Structure-activity relationships of benzothiazole GPR35 antagonists” (Bioorg Med Chem Lett, 2017)

Experiments:
[1] = biological target: T1, G-protein coupled receptor 35 (Homo sapiens, UniProt Q9HC97); experiment: Antagonist activity at human N-terminal HA-tagged GPR35a expressed in human U2OS cells co-expressing GFP-fused beta arrestin-2 assessed as inhibition of agonist induced redistribution of GFP-fused beta arrestin-2 preincubated for 15 mins followed by agonist addition by fluorescence assay; format: cell-based
[2] = biological target: T1, G-protein coupled receptor 35; experiment: Antagonist activity at HA tagged GPR35a (unknown origin) expressed in human U2OS cells co-expressing GFP-fused beta arrestin-2 assessed as inhibition of zaprinast induced effect; format: cell-based
[3] = biological target: T1, G-protein coupled receptor 35; experiment: Antagonist activity at GPR35 (unknown origin)

T1 sequence (Q9HC97 whole entry, the tested form may be a part): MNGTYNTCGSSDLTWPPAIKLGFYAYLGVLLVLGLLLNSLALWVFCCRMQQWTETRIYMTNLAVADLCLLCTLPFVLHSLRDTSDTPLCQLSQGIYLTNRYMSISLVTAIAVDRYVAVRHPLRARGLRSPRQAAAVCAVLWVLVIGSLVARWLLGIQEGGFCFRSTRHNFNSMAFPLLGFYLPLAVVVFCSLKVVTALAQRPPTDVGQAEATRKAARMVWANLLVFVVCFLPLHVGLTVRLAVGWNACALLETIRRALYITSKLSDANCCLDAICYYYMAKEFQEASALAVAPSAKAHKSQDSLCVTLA

| Compound | EC50 [1] | IC50 [2] | IC50 [3] |
| --- | --- | --- | --- |
| O=C(Nc1ccc2nc(SCc3ccc(Cl)cc3)sc2c1)c1ccccc1C(=O)N1CCOCC1 | 0.55 µM | 4.56 µM | – |
| O=C(Nc1ccc2nc(SCc3ccccc3)sc2c1)c1ccccc1C(=O)N1CCOCC1 | – | 7.23 µM | – |
| O=C(Nc1ccc2nc([S+]([O-])Cc3ccc(Cl)cc3)sc2c1)c1ccccc1C(=O)N1CCOCC1 (stereo not drawn) | – | 13 µM | – |
| O=C(Nc1ccc2nc(SCc3ccc(Cl)cc3)sc2c1)c1ccccc1C(=O)N1CCCCC1 | – | > 30 µM | – |
| CC(Sc1nc2ccc(NC(=O)c3ccccc3C(=O)N3CCOCC3)cc2s1)c1ccc(Cl)cc1 (stereo not drawn) | – | 17 µM | – |
| O=C(Nc1ccc2nc(SCc3ccc(Cl)cc3)sc2c1)c1ccccc1C(=O)N1CCCC1 | – | > 30 µM | – |
| O=C(Nc1ccc2nc(SCc3ccc(Cl)cc3)[nH]c2c1)c1ccccc1C(=O)N1CCOCC1 | – | > 30 µM | – |
| O=C(O)c1cc(=O)c2ccccc2[nH]1 [TRANSTORINE] | – | – | 39 µM |

Other lines, results leading:

| EC50 [1] | IC50 [2] | IC50 [3] | Compound |
| --- | --- | --- | --- |
| – | > 30 µM | – | O=C(Nc1ccc2nc([S@+]([O-])Cc3ccc(Cl)cc3)sc2c1)c1ccccc1C(=O)N1CCOCC1 |
| – | 5.24 µM | – | O=C(Nc1ccc2nc(S(=O)(=O)Cc3ccc(Cl)cc3)sc2c1)c1ccccc1C(=O)N1CCOCC1 |
| – | > 30 µM | – | O=C(Nc1ccc2nc(SCc3ccncc3)sc2c1)c1ccccc1C(=O)N1CCOCC1 |
| – | > 30 µM | – | O=C(Nc1ccc2nc([S@@+]([O-])Cc3ccc(Cl)cc3)sc2c1)c1ccccc1C(=O)N1CCOCC1 |
